Data published in ChEMBL document CHEMBL1131732, “Potential anxiolytic agents. 3. Novel A-ring modified pyrido[1,2-a]benzimidazoles” (Bioorg Med Chem Lett, 1999).

What was measured:
Mus musculus [1] = assay: In vivo inhibitory activity against metrazole-induced seizures in mice by intraperitoneal administration; type: functional; conditions: ip
Rattus norvegicus [2] = assay: Inhibition of experimentally-induced conflict in rats following i.p. administration.; type: functional; conditions: ip, read-out: MED
[3] = target: GABA-A receptor; anion channel; assay: In vitro inhibitory against Gamma-aminobutyric acid A receptor from rat cerebral cortex using [3H]flunitrazepam as the radioligand; type: tissue-based
Rattus norvegicus [4] = assay: Inhibitory activity determined by experimentally-induced conflict test in rats after oral administration; type: functional; conditions: read-out: MED
Mus musculus [5] = assay: In vivo inhibitory activity against metrazole-induced seizures in mice by peroral administration; type: functional; conditions: po
[6] = target: GABA-A receptor; anion channel (Rattus norvegicus) (UniProt O09028+P15431+P18506+P18508+P19969+P20236+P23574+P23576+P28471+P28473+P30191+P62813+P63079+P63138+Q91ZM7+Q9ES14); assay: GABA shift which is the ratio of binding in the absence and presence of GABA (1 mM) was determined; type: protein-complex assay

SMILES	ED50 (Mus musculus [1])	minimal effective dose (Rattus norvegicus [2])	IC50 [3]	minimal effective dose (Rattus norvegicus [4])	ED50 (Mus musculus [5])	GS [6]
O=C(Nc1ccccc1F)C1=C(O)CCn2c1nc1cc(Cl)ccc12	1 mg/kg	10 mg/kg	5.1 nM	> 10 mg/kg	~30 mg/kg	1.8
O=C(Nc1ccccc1F)C1=C(O)CCn2c1nc1cccnc12	> 10 mg/kg	> 10 mg/kg	291 nM	> 30 mg/kg	> 10 mg/kg	1.3
O=C(Nc1ccccc1)C1=C(O)CCn2c1nc1ncccc12	3 mg/kg	> 10 mg/kg	8.3 nM	30 mg/kg	< 30 mg/kg	3
O=C(Nc1ccccc1F)C1=C(O)CCn2c1nc1c(O)cccc12	–	–	10.4 nM	> 10 mg/kg	–	3
O=C(Nc1c(F)cccc1F)C1=C(O)CCn2c1nc1cc(Cl)ccc12	1 mg/kg	10 mg/kg	6.3 nM	10 mg/kg	10 mg/kg	2.2
O=C(Nc1c(F)cccc1F)C1=C(O)CCn2c1nc1ncccc12	3 mg/kg	> 10 mg/kg	30.1 nM	> 10 mg/kg	30 mg/kg	1.8
O=C(Nc1c(F)cccc1F)C1=C(O)CCn2c1nc1c(Cl)cccc12	0.3 mg/kg	10 mg/kg	1.1 nM	> 10 mg/kg	10 mg/kg	1.7
Cc1cccc2c1nc1n2CCC(O)=C1C(=O)Nc1ccccc1	~1 mg/kg	> 10 mg/kg	10.1 nM	> 30 mg/kg	> 10 mg/kg	2.8
O=C(Nc1ccccc1)C1=C(O)CCn2c1nc1cc(O)ccc12	> 30 mg/kg	> 30 mg/kg	40.5 nM	> 30 mg/kg	> 30 mg/kg	1.1
COc1ccc2c(c1)nc1n2CCC(O)=C1C(=O)Nc1ccccc1	3 mg/kg	> 10 mg/kg	39.5 nM	> 30 mg/kg	> 10 mg/kg	2.5
O=C(Nc1c(F)cccc1F)C1=C(O)CCn2c1nc1c(F)cc(F)cc12	> 1 mg/kg	–	30.1 nM	> 10 mg/kg	> 1 mg/kg	2.4
O=C(Nc1ccccc1F)C1=C(O)CCn2c1nc1c(F)c(F)ccc12	0.2 mg/kg	–	1.4 nM	10 mg/kg	0.2 mg/kg	1.7
O=C(Nc1ccccc1)C1=C(O)CCn2c1nc1cc(Cl)ccc12	1 mg/kg	10 mg/kg	65.6 nM	> 30 mg/kg	20 mg/kg	1.6
O=C(Nc1c(F)cccc1F)C1=C(O)CCn2c1nc1cnccc12	> 10 mg/kg	–	17.7 nM	3 mg/kg	–	2.4
O=C(Nc1ccccc1)C1=C(O)CCn2c1nc1cccnc12	> 10 mg/kg	> 10 mg/kg	4380 nM	> 30 mg/kg	> 10 mg/kg	2.1
O=C(Nc1ccccc1F)C1=C(O)CCn2c1nc1c3ccccc3ccc12	> 1 mg/kg	–	154 nM	> 10 mg/kg	> 30 mg/kg	2.8
O=C(Nc1ccccc1F)C1=C(O)CCn2c1nc1ccc(F)c(F)c12	> 1 mg/kg	–	857 nM	> 10 mg/kg	> 1 mg/kg	2.5

SMILES	ED50 (Mus musculus [1])	minimal effective dose (Rattus norvegicus [2])	IC50 [3]	minimal effective dose (Rattus norvegicus [4])	ED50 (Mus musculus [5])	GS [6]
O=C(Nc1ccccc1F)C1=C(O)CCn2c1nc1ncccc12	1 mg/kg	10 mg/kg	3.5 nM	> 30 mg/kg	10 mg/kg	2.7
O=C(Nc1ccccc1F)C1=C(O)CCn2c1nc1c(F)cc(F)cc12	> 1 mg/kg	–	19.8 nM	> 10 mg/kg	> 1 mg/kg	1.2
COc1cccc2c1nc1n2CCC(O)=C1C(=O)Nc1c(F)cccc1F	–	–	156 nM	–	–	3.7
O=C(Nc1ccccc1F)C1=C(O)CCn2c1nc1cccc(O)c12	> 1 mg/kg	> 1 mg/kg	14 nM	> 30 mg/kg	> 30 mg/kg	2.8
O=C(Nc1c(F)cccc1F)C1=C(O)CCn2c1nc1c(F)c(F)ccc12	0.2 mg/kg	–	1.1 nM	3 mg/kg	0.2 mg/kg	1.4
CN1C(=O)CN=C(c2ccccc2)c2cc(Cl)ccc21 [DIAZEPAM]	0.11 mg/kg	5 mg/kg	–	10 mg/kg	0.5 mg/kg	2.2
Cc1cccc2c1nc1n2CCC(O)=C1C(=O)Nc1ccccc1F	1 mg/kg	10 mg/kg	96.3 nM	> 30 mg/kg	10 mg/kg	1.5
COc1ccc2c(c1)nc1n2CCC(O)=C1C(=O)Nc1ccccc1F	> 10 mg/kg	> 10 mg/kg	6.1 nM	> 30 mg/kg	> 10 mg/kg	1.2
O=C(Nc1ccccc1)C1=C(O)CCn2c1nc1ccc(Cl)cc12	> 10 mg/kg	> 10 mg/kg	174 nM	30 mg/kg	> 30 mg/kg	2.1
O=C(Nc1ccccc1F)C1=C(O)CCn2c1nc1cc(C(F)(F)F)ccc12	1 mg/kg	–	184 nM	> 10 mg/kg	–	4.7
O=C(Nc1c(F)cccc1F)C1=C(O)CCn2c1nc1cc(F)ccc12	0.3 mg/kg	3 mg/kg	6.3 nM	3 mg/kg	3 mg/kg	2.2
O=C(Nc1ccccc1F)C1=C(O)CCn2c1nc1cc(F)ccc12	< 1 mg/kg	10 mg/kg	1.9 nM	> 30 mg/kg	> 30 mg/kg	1.8
O=C(Nc1c(F)cccc1F)C1=C(O)CCn2c1nc1ccc(F)c(F)c12	> 1 mg/kg	–	66.2 nM	> 10 mg/kg	> 1 mg/kg	1.7
O=C(Nc1ccccc1F)C1=C(O)CCn2c1nc1c(Cl)cccc12	1 mg/kg	10 mg/kg	7.1 nM	> 10 mg/kg	> 30 mg/kg	1.8
O=C(Nc1ccccc1F)C1=C(O)CCn2c1nc1cc3ccccc3cc12	1 mg/kg	10 mg/kg	17 nM	> 10 mg/kg	> 30 mg/kg	1
O=C(Nc1ccccc1F)C1=C(O)CCn2c1nc1ccc3ccccc3c12	> 1 mg/kg	–	> 1000 nM	> 10 mg/kg	> 30 mg/kg	–
COc1cccc2c1nc1n2CCC(O)=C1C(=O)Nc1ccccc1F	–	–	7.8 nM	–	–	1.4
